Source: US20120101095A1, “ALKOXY-THIENOPYRIMIDINES AS TGF-BETA RECEPTOR KINASE MODULATORS” (priority 2009, published 2012)

Molecular target: T1, GST-ALK5 (Homo sapiens, UniProt P36897)
T1 sequence (P36897 34-503): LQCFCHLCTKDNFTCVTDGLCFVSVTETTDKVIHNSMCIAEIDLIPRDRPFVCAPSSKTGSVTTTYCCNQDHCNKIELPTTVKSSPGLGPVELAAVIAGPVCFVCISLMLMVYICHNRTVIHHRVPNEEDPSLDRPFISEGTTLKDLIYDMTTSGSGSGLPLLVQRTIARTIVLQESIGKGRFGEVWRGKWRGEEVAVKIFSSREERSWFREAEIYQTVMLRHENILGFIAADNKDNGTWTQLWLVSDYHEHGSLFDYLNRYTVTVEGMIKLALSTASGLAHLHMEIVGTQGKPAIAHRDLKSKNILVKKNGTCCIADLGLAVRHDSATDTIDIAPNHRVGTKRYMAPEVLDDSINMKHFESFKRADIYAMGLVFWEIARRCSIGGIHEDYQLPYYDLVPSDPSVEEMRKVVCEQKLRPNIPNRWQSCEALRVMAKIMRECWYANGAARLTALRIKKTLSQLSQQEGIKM
Test: In-vitro (enzyme) kinase assay, 384-well flashplate, GST-SMAD2 substrate
Type: biochemical
Conditions: 31.2 nM GST-ALK5, 439 nM GST-SMAD2, 3 mM ATP, 30° C., 45 min
Method: In-Vitro (Enzyme) Assay for Determination of the Efficacy of Inhibitors of the Inhibition of TGF-Beta-Mediated Effects
The kinase assay was carried out as 384-well flashplate assay. 31.2 nM of GST-ALK5, 439 nM of GST-SMAD2 and 3 mM of ATP (with 0.3 μCi of ^33P-ATP/well) were incubated in a total volume of 35 μl (20 mM of HEPES, 10 mM of MgCl2, 5 mM of MnCl2, 1 mM of DTT, 0.1% of BSA, pH 7.4) without or with test substance (5-10 concentrations) at 30° C. for 45 min. The reaction was stopped using 25 μl of 200 mM EDTA solution, filtered with suction at room temperature after 30 min, and the wells were washed with 3 times 100 μl of 0.9% NaCl solution. Radioactivity was measured in the TopCount. The IC50 values were calculated using RS1 (Table 1). Above and below, all temperatures were indicated in ° C.

| SMILES | IC50 |
| --- | --- |
| NC(=O)c1sc2nc(OCc3ccn(CCO)n3)nc(-c3cccc(Cl)c3)c2c1N [No 74, 5-Amino-4-(3-chloro-phenyl)-2-[1-(2-hydroxy-ethyl)-1H-pyrazol-3-ylmethoxy]-thieno[2,3-d]pyrimidine-6-carboxylic acid amide] | < 100 nM |
| Cn1cnc(COc2nc(-c3cccc(Cl)c3)c3c(N)c(C(N)=O)sc3n2)c1 [No 45, 5-Amino-4-(3-chloro-phenyl)-2-(1-methyl-1H-imidazol-4-ylmethoxy)-thieno[2,3-d]pyrimidine-6-carboxylic acid amide] | < 100 nM |
| CC(C)(C)OCCOc1nc(-c2cccc(Cl)c2)c2c(N)c(C(N)=O)sc2n1 [No 11, 5-Amino-2-(2-tert-butoxy-ethoxy)-4-(3-chloro-phenyl)-thieno[2,3-d]pyrimidine-6-carboxylic acid amide] | 100 to 500 nM |
| NC(=O)c1sc2nc(OCCCN3CCCC3=O)nc(-c3cccc(Cl)c3)c2c1N [No 54, 5-Amino-4-(3-chloro-phenyl)-2-[3-(2-oxo-pyrrolidin-1-yl)-propoxy]-thieno[2,3-d]pyrimidine-6-carboxylic acid amide] | 100 to 500 nM |
| C=CCOc1nc(-c2cccc(Cl)c2)c2c(N)c(C(N)=O)sc2n1 [No 3, 2-Allyloxy-5-amino-4-(3-chloro-phenyl)-thieno[2,3-d]pyrimidine-6-carboxylic acid amide] | < 100 nM |
| Cc1ccc(-c2nc(OCc3ccccn3)nc3sc(C(N)=O)c(N)c23)o1 [No 38, 5-Amino-4-(5-methyl-furan-2-yl)-2-(pyridin-2-ylmethoxy)-thieno[2,3-d]pyrimidine-6-carboxylic acid amide] | 100 to 500 nM |
| Cc1ccc(-c2nc(OCCCO)nc3sc(C(N)=O)c(N)c23)o1 [No 22, 5-Amino-2-(3-hydroxy-propoxy)-4-(5-methyl-furan-2-yl)-thieno[2,3-d]pyrimidine-6-carboxylic acid amide] | 100 to 500 nM |
| NC(=O)c1sc2nc(OCC3CCC(CO)CC3)nc(-c3cccc(Cl)c3)c2c1N (stereo not drawn) [No 67, 5-Amino-4-(3-chloro-phenyl)-2-(4-hydroxymethyl-cyclohexylmethoxy)-thieno[2,3-d]pyrimidine-6-carboxylic acid amide] | 100 to 500 nM |
| Cc1ccc(-c2nc(OCc3cnn(C)c3)nc3sc(C(N)=O)c(N)c23)o1 [No 24, 5-Amino-4-(5-methyl-furan-2-yl)-2-(1-methyl-1H-pyrazol-4-ylmethoxy)-thieno[2,3-d]pyrimidine-6-carboxylic acid amide] | < 100 nM |
| Cc1ccc(-c2nc(OCc3ccncc3)nc3sc(C(N)=O)c(N)c23)o1 [No 30, 5-Amino-4-(5-methyl-furan-2-yl)-2-(pyridin-4-ylmethoxy)-thieno[2,3-d]pyrimidine-6-carboxylic acid amide] | 500 to 1000 nM |

Next, values leading:

| IC50 | SMILES |
| --- | --- |
| < 100 nM | NC(=O)c1sc2nc(OCCn3cccn3)nc(-c3cccc(Cl)c3)c2c1N [No 42, 5-Amino-4-(3-chloro-phenyl)-2-(2-pyrazol-1-yl-ethoxy)-thieno[2,3-d]pyrimidine-6-carboxylic acid amide] |
| < 100 nM | Cc1cccc(-c2nc(OCc3cn(C)cn3)nc3sc(C(N)=O)c(N)c23)n1 [No 40, 5-Amino-2-(1-methyl-1H-imidazol-4-ylmethoxy)-4-(6-methyl-pyridin-2-yl)-thieno[2,3-d]pyrimidine-6-carboxylic acid amide] |
| < 100 nM | Cc1cccc(-c2nc(OCCn3cccn3)nc3sc(C(N)=O)c(N)c23)n1 [No 27, 5-Amino-4-(6-methyl-pyridin-2-yl)-2-(2-pyrazol-1-yl-ethoxy)-thieno[2,3-d]pyrimidine-6-carboxylic acid amide] |
| < 100 nM | NC(=O)c1sc2nc(OCCCn3cccn3)nc(-c3cccc(Cl)c3)c2c1N [No 41, 5-Amino-4-(3-chloro-phenyl)-2-(3-pyrazol-1-yl-propoxy)-thieno[2,3-d]pyrimidine-6-carboxylic acid amide] |
| 100 to 500 nM | NC(=O)c1sc2nc(OCCn3ccnc3)nc(-c3cccc(Cl)c3)c2c1N [No 43, 5-Amino-4-(3-chloro-phenyl)-2-(2-imidazol-1-yl-ethoxy)-thieno[2,3-d]pyrimidine-6-carboxylic acid amide] |
